This is an account of results in patent US10221173B2, “Chemical compounds” (AstraZeneca AB, priority 2017, dated 2019).

The target of data set [1] is hERG potassium channel (Homo sapiens (Human), UniProt Q12809).
For data set [2], the target named is T1, Estrogen Receptor (ERα) in MCF-7 cells (Homo sapiens (Human), UniProt P03372). Briefly: MCF-7 ER down-regulation assay (immuno-fluorescence). Type of data set: cell-based.
Data set [3] is described as follows: Thermodynamic solubility (shake-flask). Type of data set: physicochemical. Conditions: aqueous phosphate buffer, 25 °C, pH 7.4, aqueous buffer, thermodynamic from solid, phosphate buffer pH 7.4, 24 hours.
Experimental: The thermodynamic solubility of a research compound is measured under standard conditions. It is a shake-flask approach that uses 10 mM DMSO solutions which are supplied from the Compound Managements liquid store and is a high throughput method. The dried compounds are equilibrated in an aqueous phosphate buffer (pH 7.4) for 24 hours at 25° C., the portion with the dissolved compound is then separated from the remains. The solutions are analyzed and quantified using UPLC/MS/MS, QC-samples are incorporated in each assay-run to ensure the quality of the assay.
Data set [4] deals with T1, Estrogen Receptor (ERα) in MCF-7 cells. Briefly: Western blotting assay, ER down-regulation in MCF-7. Type of data set: cell-based. Conditions: MCF-7, 100 nM compound, 48 h, vs 100 nM fulvestrant. On the technique in general: A western blot detects proteins with antibodies after separation by electrophoresis.
Data set [5] can be described thus: Human plasma protein binding (equilibrium dialysis). The data set is classed as in vitro ADME.
The nature of data set [6]: Log D (shake flask, 1-octanol/aqueous buffer). Type of data set: physicochemical. Conditions: 1-octanol/aqueous buffer, pH 7.4, pH 7.4.
Data set [7] deals with recombinant human Estrogen Receptor alpha ligand binding domain (ER alpha-LBD (GST)) (Homo sapiens (Human), UniProt P03372). Briefly: ERα binding assay (LanthaScreen TR-FRET competition). Background: TR-FRET usually uses a lanthanide donor and a delayed reading to cut background.
The target of data set [8] is estrogen receptor (ERα) in CAMA-1 cells (Homo sapiens (Human), UniProt P03372). Briefly: Western blotting assay, ER down-regulation in CAMA-1. Type of data set: cell-based. Conditions: CAMA-1, 100 nM compound, 48 h, vs 100 nM fulvestrant.
For data set [9], the target named is ER (Homo sapiens (Human), UniProt P03372). Conditions: 500 mg monthly dose; cited from earlier work.

In brackets after ≈: the same amount, converted by molar mass.

Sequence of hERG potassium channel (Q12809 whole entry): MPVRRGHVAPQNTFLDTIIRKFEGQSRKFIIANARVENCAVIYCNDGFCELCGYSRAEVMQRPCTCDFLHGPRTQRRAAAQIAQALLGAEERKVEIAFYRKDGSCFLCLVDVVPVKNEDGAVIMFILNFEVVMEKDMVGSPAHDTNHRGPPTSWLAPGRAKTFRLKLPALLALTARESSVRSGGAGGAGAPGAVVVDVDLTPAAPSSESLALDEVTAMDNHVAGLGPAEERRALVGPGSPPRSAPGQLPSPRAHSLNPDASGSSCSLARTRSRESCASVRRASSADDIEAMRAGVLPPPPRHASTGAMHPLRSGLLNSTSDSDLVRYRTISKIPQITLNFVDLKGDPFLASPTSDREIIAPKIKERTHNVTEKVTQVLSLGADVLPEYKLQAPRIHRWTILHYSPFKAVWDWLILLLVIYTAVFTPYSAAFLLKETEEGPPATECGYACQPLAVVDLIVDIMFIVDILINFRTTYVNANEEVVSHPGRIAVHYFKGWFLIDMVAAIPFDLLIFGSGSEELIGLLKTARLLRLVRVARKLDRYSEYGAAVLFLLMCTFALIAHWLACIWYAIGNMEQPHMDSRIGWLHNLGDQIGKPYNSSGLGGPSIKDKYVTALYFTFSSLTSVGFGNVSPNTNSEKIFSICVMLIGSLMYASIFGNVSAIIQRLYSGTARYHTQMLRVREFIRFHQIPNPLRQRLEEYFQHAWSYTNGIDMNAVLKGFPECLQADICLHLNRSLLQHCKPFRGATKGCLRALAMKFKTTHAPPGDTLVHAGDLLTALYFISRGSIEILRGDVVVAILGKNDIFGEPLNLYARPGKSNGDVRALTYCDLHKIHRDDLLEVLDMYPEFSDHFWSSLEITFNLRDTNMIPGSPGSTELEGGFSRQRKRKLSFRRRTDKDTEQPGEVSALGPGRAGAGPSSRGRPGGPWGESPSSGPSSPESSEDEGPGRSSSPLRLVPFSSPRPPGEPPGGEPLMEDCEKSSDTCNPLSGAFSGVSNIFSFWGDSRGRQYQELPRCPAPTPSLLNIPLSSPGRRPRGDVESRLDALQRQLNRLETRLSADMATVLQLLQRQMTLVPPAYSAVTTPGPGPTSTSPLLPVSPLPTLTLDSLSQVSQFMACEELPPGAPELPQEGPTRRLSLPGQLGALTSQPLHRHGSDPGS
Sequence of estrogen receptor (ERα) in CAMA-1 cells (P03372 whole entry): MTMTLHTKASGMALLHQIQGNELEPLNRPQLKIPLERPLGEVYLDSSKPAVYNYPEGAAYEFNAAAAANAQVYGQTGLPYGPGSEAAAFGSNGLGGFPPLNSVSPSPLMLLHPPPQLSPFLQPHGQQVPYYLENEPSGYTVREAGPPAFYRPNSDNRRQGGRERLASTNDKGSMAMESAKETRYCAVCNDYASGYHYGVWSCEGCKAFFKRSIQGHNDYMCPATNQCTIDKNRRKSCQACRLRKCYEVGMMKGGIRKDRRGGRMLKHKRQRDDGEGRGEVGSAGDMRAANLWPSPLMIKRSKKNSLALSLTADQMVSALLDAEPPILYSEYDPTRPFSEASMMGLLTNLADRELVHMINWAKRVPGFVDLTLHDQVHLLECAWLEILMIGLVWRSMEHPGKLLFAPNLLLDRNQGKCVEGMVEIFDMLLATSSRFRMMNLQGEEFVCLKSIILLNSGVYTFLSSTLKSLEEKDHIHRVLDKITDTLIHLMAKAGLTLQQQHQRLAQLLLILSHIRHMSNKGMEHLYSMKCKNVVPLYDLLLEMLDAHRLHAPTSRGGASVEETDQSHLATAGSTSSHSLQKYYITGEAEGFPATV
T1 sequence (P03372 whole entry): as above
Sequence of recombinant human Estrogen Receptor alpha ligand binding domain (ER alpha-LBD (GST)) (P03372 307-554): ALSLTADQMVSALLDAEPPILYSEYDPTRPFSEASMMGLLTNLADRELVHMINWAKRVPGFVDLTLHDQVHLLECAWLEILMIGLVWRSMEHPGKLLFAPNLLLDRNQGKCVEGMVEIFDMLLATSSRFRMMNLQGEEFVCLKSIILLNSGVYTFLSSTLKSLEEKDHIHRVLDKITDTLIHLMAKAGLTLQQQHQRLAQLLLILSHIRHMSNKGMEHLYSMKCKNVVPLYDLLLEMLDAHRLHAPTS
Sequence of ER (P03372 whole entry): as the sequence (P03372 whole entry) above

The IC50 is the point on the concentration scale where inhibition reaches its midpoint. What is called solubility is how much of the substance goes into solution per volume. The term logD denotes the decadic logarithm of the distribution of all forms, ionised or not, between an organic phase and buffer at a given pH. Low readings indicate a more hydrophilic compound, high ones a more lipophilic compound. As for `COc1ccc(NCCNCCCF)c(F)c1[C@@H]1c2[nH]c3ccccc3c2C[C@@H](C)N1CC(F)(F)F` [Example 90, N1-(2-fluoro-4-methoxy-3-((1R,3R)-3-methyl-2-(2,2,2-trifluoroethyl)-2,3,4,9-tetrahydro-1H-pyrido[3,4-b]indol-1-yl)phenyl)-N2-(3-fluoropropyl)ethane-1,2-diamine], the IC50 in [1] was determined as 5000 nM; in data set [2], 0.3 nM; in data set [7], 0.65 nM. This molecule also yielded a solubility at 24 h in data set [3] of 365 µM (≈ 186 µg/mL). Also, in data set [4], the “MCF7 Western % ER deg vs Fv” value is reported as 76%. The “Human plasma protein binding (% free)” value in [5] is recorded as 1.1 % free. Further, the logD in data set [6] amounted to 2.8. In addition, in data set [8], the “CAMA1 Western % ER deg vs Fv” value was determined as 93%.
In the case of `Cc1c(OCCNCCCF)ccnc1[C@@H]1c2[nH]c3ccccc3c2C[C@@H](C)N1CC(F)(F)CO` [Example 96, 2,2-difluoro-3-((1S,3R)-1-(4-(2-((3-fluoropropyl)amino)ethoxy)-3-methylpyridin-2-yl)-3-methyl-1,3,4,9-tetrahydro-2H-pyrido[3,4-b]indol-2-yl)propan-1-ol], the IC50 in data set [1] worked out at 10000 nM; in [2], 0.2 nM; in [7], 1.4 nM. Besides, in data set [3], the solubility at 24 h was 960 µM (≈ 471 µg/mL). Also, the “MCF7 Western % ER deg vs Fv” value in data set [4] is recorded as 94%. Moreover, the “Human plasma protein binding (% free)” value in data set [5] turned out to be 7.1 % free. The logD in data set [6] is 2.4. The “CAMA1 Western % ER deg vs Fv” value in [8] worked out at 100%.
Consider `C[C@@H]1Cc2c([nH]c3ccccc23)[C@@H](c2nccc(OCCNCCCF)c2F)N1CC(F)(F)CO` [Example 97, 2,2-difluoro-3-((1S,3R)-1-(3-fluoro-4-(2-((3-fluoropropyl)amino)ethoxy)pyridin-2-yl)-3-methyl-1,3,4,9-tetrahydro-2H-pyrido[3,4-b]indol-2-yl)propan-1-ol], for which the IC50 came to 18000 nM in data set [1], 0.66 nM in data set [2] and 2.2 nM in [7]. The molecule further registered a solubility at 24 h in data set [3] above 1000 µM. Moreover, the “MCF7 Western % ER deg vs Fv” value in [4] worked out at 89%. Also, the “Human plasma protein binding (% free)” value in data set [5] amounted to 6.8 % free. Also, the logD in data set [6] stood at 1.8. In addition, in [8], the “CAMA1 Western % ER deg vs Fv” value is reported as 84%.
On to `C[C@@H]1Cc2c([nH]c3ccccc23)[C@@H](c2c(F)cnc(OCCNCCCF)c2F)N1CC(F)(F)F` [Example 107, N-(2-((3,5-difluoro-4-((1R,3R)-3-methyl-2-(2,2,2-trifluoroethyl)-2,3,4,9-tetrahydro-1H-pyrido[3,4-b]indol-1-yl)pyridin-2-yl)oxy)ethyl)-3-fluoropropan-1-amine], for which the IC50 in data set [1] came out at 8100 nM; in data set [2], 0.21 nM; in [7] it was 1.3 nM. This molecule had a solubility at 24 h in [3] of 120 µM (≈ 60.1 µg/mL). Also, the “MCF7 Western % ER deg vs Fv” value in data set [4] was found to be 95%. Further, the “Human plasma protein binding (% free)” value in data set [5] is on record as 1 % free. In data set [6], this molecule showed a logD of 3.6. Besides, in data set [8], the “CAMA1 Western % ER deg vs Fv” value stood at 98%.
For the molecule `C[C@]12CC[C@@H]3c4ccc(O)cc4C[C@@H](CCCCCCCCC[S+]([O-])CCCC(F)(F)C(F)(F)F)[C@H]3[C@@H]1CC[C@@H]2O` (stereo partly drawn) [Fulvestrant], the “turnover of the receptor in patient samples” value in data set [9] is listed as “less than 50%”.
